# Data as given in patent US8895547B2, “Substituted phenyl-oxathiazine derivatives, method for producing them, drugs containing said compounds and the use thereof” (Sanofi, priority 2011, dated 2014).
# Molecular target: T1, human 11β-HSD1 (Homo sapiens, UniProt P28845)
# T1 construct: host or cells: microsome fraction
# Test: Enzymatic 11beta-HSD1 test (SPA-based detection)
# Type: biochemical
# Conditions: human 11β-HSD1 microsome fraction, [1,2-3H]-cortisone, NADPH, 37° C. 1 hour
# How it was run: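 Scintillation proximity detection: anti-cortisol antibody on SPA-PVT beads captured tritiated cortisol. The stop mix also contained 0.01 mM SSR110887 and was equilibrated 1 h at room temperature before counting. Cortisol came from [1,2-3H]-cortisone ([…]), turned over by human 11β-HSD1 microsomal protein (0.2 µg) with 0.25 mM NADPH in HEPES buffer, 37 °C, 1 h.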
# T1 sequence (P28845 whole entry): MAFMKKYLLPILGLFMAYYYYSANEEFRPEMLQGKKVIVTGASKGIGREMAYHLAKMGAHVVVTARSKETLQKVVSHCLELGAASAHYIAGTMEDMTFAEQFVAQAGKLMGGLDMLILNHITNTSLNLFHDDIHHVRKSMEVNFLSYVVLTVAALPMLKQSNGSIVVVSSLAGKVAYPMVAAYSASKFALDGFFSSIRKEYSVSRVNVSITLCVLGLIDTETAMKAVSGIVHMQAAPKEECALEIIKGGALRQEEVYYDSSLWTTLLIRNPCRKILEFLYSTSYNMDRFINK
row,Compound,IC50
1,"CN(C)c1cccc(-c2ccc(C3C(C)(C)OC(N[C@@H](CCO)c4ccccc4F)=NS3(=O)=O)cc2)n1 (stereo partly drawn) [Example 126, (S)-3-{5-[4-(6-Dimethylamino-pyridin-2-yl)-phenyl]-6,6-dimethyl-4,4-dioxo-5,6-dihydro-4H-4lambda6-[1,4,3]oxathiazin-2-ylamino}-3-(2-fluorophenyl)-propan-1-ol]",19 nM
2,CC1(C)OC(N[C@@H](CCO)c2ccccc2F)=NS(=O)(=O)C1c1ccc(-c2ccnc(C#N)c2)cc1 (stereo partly shown) [Example 127],6 nM
3,"CC1(C)OC(N[C@@H](CCO)c2ccccc2F)=NS(=O)(=O)C1c1ccc(-c2cc[nH]n2)cc1 (stereo partly drawn) [Example 128, (S)-3-{6,6-Dimethyl-4,4-dioxo-5-[4-(1H-pyrazol-3-yl)-phenyl]-5,6-dihydro-4H-4lambda6-[1,4,3]oxathiazin-2-ylamino}-3-(2-fluorophenyl)-propan-1-ol]",10 nM
4,"CC1(C)OC(N[C@@H](CCO)c2ccccc2F)=NS(=O)(=O)C1c1ccc(CN2CCOCC2)cc1 (stereo partly drawn) [Example 129, (S)-3-[6,6-Dimethyl-5-(4-morpholin-4-ylmethyl-phenyl)-4,4-dioxo-5,6-dihydro-4H-4lambda6-[1,4,3]oxathiazin-2-ylamino]-3-(2-fluorophenyl)-propan-1-ol]",18 nM
5,"CC1(C)OC(N[C@@H](CCO)c2ccccc2F)=NS(=O)(=O)C1c1ccc(Nc2ncccn2)cc1 (stereo partly drawn) [Example 130, (S)-3-{6,6-Dimethyl-4,4-dioxo-5-[4-(pyrimidin-2-ylamino)-phenyl]-5,6-dihydro-4H-4lambda6-[1,4,3]oxathiazin-2-ylamino}-3-(2-fluorophenyl)-propan-1-ol]",20 nM
6,"CC1(C)OC(N[C@@H](CCO)c2ccccc2F)=NS(=O)(=O)C1c1ccc(N2CCCC2=O)cc1 (stereo partly drawn) [Example 132, 1-(4-{2-[(S)-1-(2-fluorophenyl)-3-hydroxy-propylamino]-6,6-dimethyl-4,4-dioxo-5,6-dihydro-4H-4lambda6-[1,4,3]oxathiazin-5-yl}-phenyl)-pyrrolidin-2-one]",14 nM
7,"CN1CCN(c2cnc(-c3ccc(C4C(C)(C)OC(N[C@@H](CCO)c5ccccc5F)=NS4(=O)=O)cc3)cn2)CC1 (stereo partly drawn) [Example 133, (S)-3-{6,6-Dimethyl-5-[4-(4-methyl-3,4,5,6-tetrahydro-2H-[1,2′]bipyrazinyl-5′-yl)-phenyl]-4,4-dioxo-5,6-dihydro-4H-4lambda6-[1,4,3]oxathiazin-2-ylamino}-3-(2-fluorophenyl)-propan-1-ol]",7 nM
8,"CC1(C)OC(N[C@@H](CCO)c2ccccc2F)=NS(=O)(=O)C1c1ccc(-c2ccccn2)cc1 (stereo partly drawn) [Example 134, (S)-3-[6,6-Dimethyl-4,4-dioxo-5-(4-pyridin-2-yl-phenyl)-5,6-dihydro-4H-4lambda6-[1,4,3]oxathiazin-2-ylamino]-3-(2-fluorophenyl)-propan-1-ol]",11 nM
9,CC1(C)OC(N[C@@H](CCO)c2ccccc2F)=NS(=O)(=O)C1c1ccc(N2CCN(CCO)CC2)cc1 (stereo partly shown) [Example 135],59 nM
10,"CN1CCN(Cc2ccc(C3C(C)(C)OC(N[C@@H](CCO)c4ccccc4F)=NS3(=O)=O)cc2)CC1 (stereo partly drawn) [Example 136, (S)-3-{6,6-Dimethyl-5-[4-(4-methyl-piperazin-1-ylmethyl)-phenyl]-4,4-dioxo-5,6-dihydro-4H-4lambda6-[1,4,3]oxathiazin-2-ylamino}-3-(2-fluoro-phenyl)-propan-1-ol]",63 nM
11,"CN1CCN(CCOc2ccc(C3C(C)(C)OC(N[C@@H](CCO)c4ccccc4F)=NS3(=O)=O)cc2)CC1 (stereo partly drawn) [Example 137, (S)-3-(6,6-Dimethyl-5-{4-[2-(4-methyl-piperazin-1-yl)-ethoxy]-phenyl}-4,4-dioxo-5,6-dihydro-4H-4lambda6-[1,4,3]oxathiazin-2-ylamino)-3-(2-fluoro-phenyl)-propan-1-ol]",70 nM
12,"CC1(C)OC(N[C@@H](CCO)c2ccccc2F)=NS(=O)(=O)C1c1ccc(N2CCN(C(C)(C)C)CC2)cc1 (stereo partly drawn) [Example 138, (S)-3-{5-[4-(4-tert-Butyl-piperazin-1-yl)-phenyl]-dimethyl-4,4-dioxo-5,6-dihydro-4H-4lambda6-[1,4,3]oxathiazin-2-ylamino}-3-(2-fluorophenyl)-propan-1-ol]",61 nM
13,"COc1ncc(-c2ccc(C3C(C)(C)OC(N[C@@H](CCO)c4ccccc4F)=NS3(=O)=O)cc2)cn1 (stereo partly drawn) [Example 139, (S)-3-(2-fluorophenyl)-3-{5-[4-(2-methoxy-pyrimidin-5-yl)-phenyl]-6,6-dimethyl-4,4-dioxo-5,6-dihydro-4H-4lambda6-[1,4,3]oxathiazin-2-ylamino}-propan-1-ol]",5 nM
14,CC1(C)OC(N[C@@H](CCO)c2ccccc2F)=NS(=O)(=O)C1c1ccc(CCN2CCOCC2)cc1 (stereo partly shown) [Example 140],69 nM
15,"CC1(C)OC(N[C@@H](CCO)c2ccccc2F)=NS(=O)(=O)C1c1ccc(N2C(=O)c3ccccc3C2=O)cc1 (stereo partly drawn) [Example 141, 2-(4-{2-[(S)-1-(2-fluorophenyl)-3-hydroxy-propylamino]-6,6-dimethyl-4,4-dioxo-5,6-dihydro-4H-4lambda6-[1,4,3]oxathiazin-5-yl}-phenyl)-isoindole-1,3-dione]",14 nM
16,"CC1(C)OC(N[C@@H](CCO)c2ccccc2F)=NS(=O)(=O)C1c1ccc(NC2CCN(C3CC3)CC2)cc1 (stereo partly drawn) [Example 142, (S)-3-{5-[4-(1-Cyclopropyl-piperidin-4-ylamino)-phenyl]-6,6-dimethyl-4,4-dioxo-5,6-dihydro-4H-4lambda6-[1,4,3]oxathiazin-2-ylamino}-3-(2-fluoro-phenyl)-propan-1-ol]",64 nM
17,"CC1(C)OC(N[C@@H](CCO)c2ccccc2F)=NS(=O)(=O)C1c1ccc(C2CCN(CCC(F)(F)F)CC2)cc1 (stereo partly drawn) [Example 143, (S)-3-(6,6-Dimethyl-4,4-dioxo-5-{4-[1-(3,3,3-trifluoropropyl)-piperidin-4-yl]-phenyl}-5,6-dihydro-4H-4lambda6-[1,4,3]oxathiazin-2-ylamino)-3-(2-fluorophenyl)-propan-1-ol]",13 nM
18,CC(=O)c1ccc(C2C(C)(C)OC(N[C@@H](CCO)c3ccccc3F)=NS2(=O)=O)cc1 (stereo partly shown) [Example 144],10 nM
19,"CN1CCN(c2ccc(-c3ccc(C4C(C)(C)OC(N[C@@H](CCO)c5ccccc5F)=NS4(=O)=O)cc3)cn2)CC1 (stereo partly drawn) [Example 145, (S)-3-(6,6-Dimethyl-5-{4-[6-(4-methyl-piperazin-1-yl)-pyridin-3-yl]-phenyl}-4,4-dioxo-5,6-dihydro-4H-4lambda6-[1,4,3]oxathiazin-2-ylamino)-3-(2-fluoro-phenyl)-propan-1-ol]",5 nM
20,"CC1(C)OC(N[C@@H](CCO)c2ccccc2F)=NS(=O)(=O)[C@H]1c1ccc(-c2ccc(C(N)=O)cc2)cc1 [Example 146, 4′-{(S)-2-[(S)-1-(2-fluorophenyl)-3-hydroxy-propylamino]-6,6-dimethyl-4,4-dioxo-5,6-dihydro-4H-4lambda6-[1,4,3]oxathiazin-5-yl}-biphenyl-4-carboxamide]",8 nM
21,"CC1(C)OC(N[C@@H](CCO)c2ccccc2F)=NS(=O)(=O)[C@@H]1c1ccc(-c2ccc(C(N)=O)cc2)cc1 [Example 147, 4′-{(R)-2-[(S)-1-(2-fluorophenyl)-3-hydroxy-propylamino]-6,6-dimethyl-4,4-dioxo-5,6-dihydro-4H-4lambda6-[1,4,3]oxathiazin-5-yl}-biphenyl-4-carboxamide]",9 nM
22,"CN1CCN(CCc2ccc(C3C(C)(C)OC(N[C@@H](CCO)c4ccccc4F)=NS3(=O)=O)cc2)CC1 (stereo partly drawn) [Example 148, (S)-3-(6,6-Dimethyl-5-{4-[2-(4-methyl-piperazin-1-yl)-ethyl]-phenyl}-4,4-dioxo-5,6-dihydro-4H-4lambda6-[1,4,3]oxathiazin-2-ylamino)-3-(2-fluoro-phenyl)-propan-1-ol]",144 nM
23,"CC1(C)OC(N[C@@H](CCO)c2ccccc2F)=NS(=O)(=O)[C@H]1c1ccc(-c2cccc(C(N)=O)c2)cc1 [Example 149, 4′-{(S)-2-[(S)-1-(2-fluorophenyl)-3-hydroxy-propylamino]-6,6-dimethyl-4,4-dioxo-5,6-dihydro-4H-4lambda6-[1,4,3]oxathiazin-5-yl}-biphenyl-3-carboxamide]",4 nM
24,"CC1(C)OC(N[C@@H](CCO)c2ccccc2F)=NS(=O)(=O)[C@@H]1c1ccc(-c2cccc(C(N)=O)c2)cc1 [Example 150, 4′-{(R)-2-[(S)-1-(2-fluorophenyl)-3-hydroxy-propylamino]-6,6-dimethyl-4,4-dioxo-5,6-dihydro-4H-4lambda6-[1,4,3]oxathiazin-5-yl}-biphenyl-3-carboxamide]",3 nM
25,"CC1(C)OC(N[C@@H](CCO)c2ccccc2F)=NS(=O)(=O)C1c1ccc(C2CCN(C(C)(C)C)CC2)cc1 (stereo partly drawn) [Example 151, (S)-3-{5-[4-(1-tert-Butyl-piperidin-4-yl)-phenyl]-6,6-dimethyl-4,4-dioxo-5,6-dihydro-4H-4lambda6-[1,4,3]oxathiazin-2-ylamino}-3-(2-fluorophenyl)-propan-1-ol]",34 nM
26,"CC1(C)OC(N[C@@H](CCO)c2ccccc2F)=NS(=O)(=O)C1c1ccc(C2CCN(C3CC3)CC2)cc1 (stereo partly drawn) [Example 152, (S)-3-{5-[4-(1-Cyclopropyl-piperidin-4-yl)-phenyl]-6,6-dimethyl-4,4-dioxo-5,6-dihydro-4H-4lamda6-[1,4,3]oxathiazin-2-ylamino}-3-(2-fluorophenyl)-propan-1-ol]",26 nM
27,"CC(C)(O)c1ccc(C2C(C)(C)OC(N[C@@H](CCO)c3ccccc3F)=NS2(=O)=O)cc1 (stereo partly drawn) [Example 153, (S)-3-(2-fluorophenyl)-3-{5-[4-(1-hydroxy-1-methyl-ethyl)-phenyl]-6,6-dimethyl-4,4-dioxo-5,6-dihydro-4H-4lambda6-[1,4,3]oxathiazin-2-ylamino}-propan-1-ol]",48 nM
28,"CN1CCN(c2ccc(-c3ccc(C4C(C)(C)OC(N[C@@H](CCO)c5ccccc5F)=NS4(=O)=O)cc3)nc2)CC1 (stereo partly drawn) [Example 154, (S)-3-(6,6-Dimethyl-5-{4-[5-(4-methyl-piperazin-1-yl)-pyridin-2-yl]-phenyl}-4,4-dioxo-5,6-dihydro-4H-4lambda6-[1,4,3]oxathiazin-2-ylamino)-3-(2-fluoro-phenyl)-propan-1-ol]",13 nM
